Assay results as given in ChEMBL document CHEMBL5532646, “Discovery of 4-(N-dithiobenzyl piperazine)-1,8-naphthalimide as a potent multi-target antitumor agent with good efficacy, limited toxicity, and low resistance” (Eur J Med Chem, 2024).
Activity calls are given as the source filed them. The calls are words filed in the database; no cut-off is given here.

Tests used:
[1] = tested on: MGC-803; test: Antiproliferative activity against human MGC-803 cells incubated for 48 hrs by MTT assay; assay type: functional, cell-based; settings: MGC-803, 48 h
[2] = tested on: HepG2; test: Antiproliferative activity against human HepG2 cells incubated for 48 hrs by MTT assay; assay type: functional, cell-based; settings: HepG2, 48 h
[3] = tested on: SK-OV-3; test: Antiproliferative activity against human SK-OV-3 cells incubated for 48 hrs by MTT assay; assay type: functional, cell-based; settings: SK-OV-3, 48 h
[4] = tested on: T-24; test: Antiproliferative activity against human T24 cells incubated for 48 hrs by MTT assay; assay type: functional, cell-based; settings: T-24, 48 h
[5] = tested on: A549; test: Antiproliferative activity against human A549 cells incubated for 48 hrs by MTT assay; assay type: functional, cell-based
[6] = tested on: A549/CDDP; test: Antiproliferative activity against human A549/DDP cells incubated for 48 hrs by MTT assay; assay type: functional, cell-based
[7] = tested on: T-24; test: Antiproliferative activity against human T24 cells xenografted in nude mouse model assessed as tumor inhibition rate at 5 mg/kg, ip administered once every two days for 21 days relative to control; assay type: functional; settings: T-24, 504 h, time 21 day
[8] = tested on: T-24; test: Antiproliferative activity against human T24 cells xenografted in nude mouse model assessed as tumor inhibition rate at 15 mg/kg, ip administered once every two days for 21 days relative to control; assay type: functional; settings: T-24, 504 h, time 21 day
[9] = Toxicity in nude mouse model xenografted with human T24 cells assessed as pathological change in heart at 5 to 15 mg/kg, ip administered once every two days for 21 days; assay type: organism-based, T-24; settings: in vivo, 504 h, dose 5-15 mg/kg, time 21 day
[10] = Toxicity in nude mouse model xenografted with human T24 cells assessed as pathological change in liver at 5 to 15 mg/kg, ip administered once every two days for 21 days; assay type: organism-based, T-24; settings: in vivo, 504 h, dose 5-15 mg/kg, time 21 day
[11] = Toxicity in nude mouse model xenografted with human T24 cells assessed as pathological change in spleen at 5 to 15 mg/kg, ip administered once every two days for 21 days; assay type: organism-based, T-24; settings: in vivo, 504 h, dose 5-15 mg/kg, time 21 day
[12] = Toxicity in nude mouse model xenografted with human T24 cells assessed as pathological change in lung at 5 to 15 mg/kg, ip administered once every two days for 21 days; assay type: organism-based, T-24; settings: in vivo, 504 h, dose 5-15 mg/kg, time 21 day
[13] = tested on: HepG2; test: Antiproliferative activity against human HepG2 cells xenografted in nude mouse model assessed as tumor inhibition rate at 5 mg/kg, ip administered once every two days for 21 days relative to control; assay type: functional; settings: HepG2, 504 h, time 21 day
[14] = tested on: HepG2; test: Antiproliferative activity against human HepG2 cells xenografted in nude mouse model assessed as tumor inhibition rate at 15 mg/kg, ip administered once every two days for 21 days relative to control; assay type: functional; settings: HepG2, 504 h, time 21 day
[15] = Toxicity in nude mouse model xenografted with human HepG2 cells assessed as pathological change in heart at 5 to 15 mg/kg, ip administered once every two days for 21 days; assay type: organism-based; settings: in vivo, 504 h, dose 5-15 mg/kg, time 21 day
[16] = Toxicity in nude mouse model xenografted with human HepG2 cells assessed as pathological change in liver at 5 to 15 mg/kg, ip administered once every two days for 21 days; assay type: organism-based; settings: in vivo, 504 h, dose 5-15 mg/kg, time 21 day
[17] = Toxicity in nude mouse model xenografted with human HepG2 cells assessed as pathological change in spleen at 5 to 15 mg/kg, ip administered once every two days for 21 days; assay type: organism-based; settings: in vivo, 504 h, dose 5-15 mg/kg, time 21 day
[18] = Toxicity in nude mouse model xenografted with human HepG2 cells assessed as pathological change in lung at 5 to 15 mg/kg, ip administered once every two days for 21 days; assay type: organism-based; settings: in vivo, 504 h, dose 5-15 mg/kg, time 21 day
[19] = tested on: SK-OV-3; test: Antiproliferative activity against human SK-OV-3 cells xenografted in nude mouse model assessed as tumor inhibition rate at 5 mg/kg, ip administered once every two days for 21 days relative to control; assay type: functional; settings: SK-OV-3, 504 h, time 21 day

CC(C)(C)OC(=O)N1CCN(c2ccc3c4c(cccc24)C(=O)N(CCO)C3=O)CC1
IC50 [1]: 8.81 µM | IC50 [2]: 7.62 µM | IC50 [3]: 9.13 µM | IC50 [4]: 7.41 µM

CCCCN1C(=O)c2cccc3c(N4CCN(C(=S)SCc5ccccc5)CC4)ccc(c23)C1=O
IC50 [1]: 26.1 µM | IC50 [2]: 29.7 µM | IC50 [3]: 25.3 µM | IC50 [4]: 22.6 µM

CN(C)CCN1C(=O)c2cccc3c(N4CCN(C(=O)OC(C)(C)C)CC4)ccc(c23)C1=O
IC50 [1]: 10.9 µM | IC50 [2]: 11.4 µM | IC50 [3]: 10.2 µM | IC50 [4]: 6.91 µM

O=C1c2cccc3c(N4CCN(C(=S)SCc5ccccc5)CC4)ccc(c23)C(=O)N1Nc1nc2ccccc2s1
IC50 [1]: 18.5 µM | IC50 [2]: 23.7 µM | IC50 [3]: 24.6 µM | IC50 [4]: 20.4 µM

O=C(c1ccccc1)N1CCN(c2ccc3c4c(cccc24)C(=O)N(Nc2ccccn2)C3=O)CC1
IC50 [1]: 35.3 µM | IC50 [2]: 38.5 µM | IC50 [3]: 29.5 µM | IC50 [4]: 32.4 µM

O=C1c2cccc3c(N4CCN(C(=S)SCc5ccccc5)CC4)ccc(c23)C(=O)N1CCO
IC50 [1]: 18.5 µM | IC50 [2]: 16.8 µM | IC50 [3]: 14.3 µM | IC50 [4]: 16.4 µM

CCCCN1C(=O)c2cccc3c(N4CCN(C(=O)c5ccccc5)CC4)ccc(c23)C1=O
IC50 [1]: 11.2 µM | IC50 [2]: 14.3 µM | IC50 [3]: 15.4 µM | IC50 [4]: 10.4 µM

O=C1c2cccc3c(N4CCN(C(=S)SCc5ccccc5)CC4)ccc(c23)C(=O)N1CCc1ccc2c(c1)OCO2
IC50 [1]: 12.1 µM | IC50 [2]: 11.8 µM | IC50 [3]: 10.5 µM | IC50 [4]: 14.6 µM

O=C(c1ccccc1)N1CCN(c2ccc3c4c(cccc24)C(=O)N(CCc2ccc4c(c2)OCO4)C3=O)CC1
IC50 [1]: 21.6 µM | IC50 [2]: 31.5 µM | IC50 [3]: 35.2 µM | IC50 [4]: 24.4 µM

CCCCN1C(=O)c2cccc3c(N4CCN(C(=O)OC(C)(C)C)CC4)ccc(c23)C1=O
IC50 [1]: > 50 µM | IC50 [2]: > 50 µM | IC50 [3]: > 50 µM | IC50 [4]: > 50 µM

CN(C)CCN1C(=O)c2cccc3c(N4CCN(C(=O)c5ccccc5)CC4)ccc(c23)C1=O
IC50 [1]: 5.73 µM | IC50 [2]: 4.78 µM | IC50 [3]: 2.01 µM | IC50 [4]: 2.08 µM | Activity [5]: Active | Activity [6]: Active | inhibition in vivo at 5 mg/kg [7]: 55% | inhibition in vivo at 15 mg/kg [8]: 64.5% | Activity [9]: Non-Toxic | Activity [10]: Non-Toxic | Activity [11]: Non-Toxic | Activity [12]: Non-Toxic | inhibition in vivo at 5 mg/kg [13]: 51.5% | inhibition in vivo at 15 mg/kg [14]: 54.5% | Activity [15]: Non-Toxic | Activity [16]: Non-Toxic | Activity [17]: Non-Toxic | Activity [18]: Non-Toxic

CC(C)(C)OC(=O)N1CCN(c2ccc3c4c(cccc24)C(=O)N(Nc2nc4ccccc4s2)C3=O)CC1
IC50 [1]: 19.5 µM | IC50 [2]: 22.4 µM | IC50 [3]: 23.5 µM | IC50 [4]: 20.3 µM

CN(C)CCN1C(=O)c2cccc3cc(N)cc(c23)C1=O [AMONAFIDE]
IC50 [2]: 7.94 µM | inhibition in vivo at 5 mg/kg [7]: 70.6% | inhibition in vivo at 15 mg/kg [14]: 62% | inhibition in vivo at 5 mg/kg [19]: 62.1%

O=C1c2cccc3c(N4CCN(C(=S)SCc5ccccc5)CC4)ccc(c23)C(=O)N1Cc1ccccc1
IC50 [1]: 38.9 µM | IC50 [2]: 40.6 µM | IC50 [3]: 30 µM | IC50 [4]: 31.7 µM

O=C1c2cccc3c(N4CCN(C(=S)SCc5ccccc5)CC4)ccc(c23)C(=O)N1Nc1ccccn1
IC50 [1]: > 50 µM | IC50 [2]: > 50 µM | IC50 [3]: > 50 µM | IC50 [4]: > 50 µM

O=c1[nH]cc(F)c(=O)[nH]1 [FLUOROURACIL]
IC50 [2]: 25.5 µM | IC50 [4]: 40.1 µM

CC(C)(C)OC(=O)N1CCN(c2ccc3c4c(cccc24)C(=O)N(CCc2ccc4c(c2)OCO4)C3=O)CC1
IC50 [1]: 5.78 µM | IC50 [2]: 4.31 µM | IC50 [3]: 4.16 µM | IC50 [4]: 3.69 µM

CC(C)(C)OC(=O)N1CCN(c2ccc3c4c(cccc24)C(=O)N(Cc2ccccc2)C3=O)CC1
IC50 [1]: > 50 µM | IC50 [2]: > 50 µM | IC50 [3]: > 50 µM | IC50 [4]: > 50 µM

CNCCCN1C(=O)c2cccc3c(N4CCN(C(=O)c5ccccc5)CC4)ccc(c23)C1=O
IC50 [1]: 8.09 µM | IC50 [2]: 4.41 µM | IC50 [3]: 6.06 µM | IC50 [4]: 6.25 µM

CC(C)(C)OC(=O)N1CCN(c2ccc3c4c(cccc24)C(=O)N(c2nc4ccccc4[nH]2)C3=O)CC1
IC50 [1]: > 50 µM | IC50 [2]: > 50 µM | IC50 [3]: > 50 µM | IC50 [4]: > 50 µM

O=C(c1ccccc1)N1CCN(c2ccc3c4c(cccc24)C(=O)N(CCO)C3=O)CC1
IC50 [1]: 19.5 µM | IC50 [2]: 17.4 µM | IC50 [3]: 16.4 µM | IC50 [4]: 20.4 µM

CNCCN1C(=O)c2cccc3c(N4CCN(C(=O)OC(C)(C)C)CC4)ccc(c23)C1=O
IC50 [1]: 8.69 µM | IC50 [2]: 7.48 µM | IC50 [3]: 5.42 µM | IC50 [4]: 3.88 µM

O=C(c1ccccc1)N1CCN(c2ccc3c4c(cccc24)C(=O)N(Cc2ccccc2)C3=O)CC1
IC50 [1]: 23.5 µM | IC50 [2]: 26.8 µM | IC50 [3]: 22.4 µM | IC50 [4]: 17.7 µM

CC(C)(C)OC(=O)N1CCN(c2ccc3c4c(cccc24)C(=O)N(Cc2ccc(Cl)cc2)C3=O)CC1
IC50 [1]: 25.3 µM | IC50 [2]: 23.2 µM | IC50 [3]: 22.6 µM | IC50 [4]: 21.3 µM

O=C1c2cccc3c(N4CCN(C(=S)SCc5ccccc5)CC4)ccc(c23)C(=O)N1Nc1ccccc1
IC50 [1]: 19.4 µM | IC50 [2]: 28.4 µM | IC50 [3]: 30.8 µM | IC50 [4]: 22.4 µM

O=C1c2cccc3c(N4CCN(C(=S)SCc5ccccc5)CC4)ccc(c23)C(=O)N1Cc1ccc(Cl)cc1
IC50 [1]: 20.5 µM | IC50 [2]: 25.3 µM | IC50 [3]: 28.8 µM | IC50 [4]: 21.1 µM

O=C(c1ccccc1)N1CCN(c2ccc3c4c(cccc24)C(=O)N(Nc2nc4ccccc4s2)C3=O)CC1
IC50 [1]: 27.5 µM | IC50 [2]: 22.4 µM | IC50 [3]: 19.4 µM | IC50 [4]: 24.1 µM

O=C(c1ccccc1)N1CCN(c2ccc3c4c(cccc24)C(=O)N(Cc2ccc(Cl)cc2)C3=O)CC1
IC50 [1]: 43.6 µM | IC50 [2]: 39.6 µM | IC50 [3]: 31 µM | IC50 [4]: 29.2 µM

CC(C)(C)OC(=O)N1CCN(c2ccc3c4c(cccc24)C(=O)N(Nc2ccccn2)C3=O)CC1
IC50 [1]: 16.5 µM | IC50 [2]: 15.3 µM | IC50 [3]: 17.8 µM | IC50 [4]: 12.4 µM

CC(C)(C)OC(=O)N1CCN(c2ccc3c4c(cccc24)C(=O)N(CCc2ccc(O)c(O)c2)C3=O)CC1
IC50 [1]: 32.4 µM | IC50 [2]: 30.5 µM | IC50 [3]: 26.4 µM | IC50 [4]: 25.1 µM

O=C(c1ccccc1)N1CCN(c2ccc3c4c(cccc24)C(=O)N(Nc2ccccc2)C3=O)CC1
IC50 [1]: 26.4 µM | IC50 [2]: 21.5 µM | IC50 [3]: 23.3 µM | IC50 [4]: 19.3 µM

O=C(c1ccccc1)N1CCN(c2ccc3c4c(cccc24)C(=O)N(CCc2ccc(O)c(O)c2)C3=O)CC1
IC50 [1]: 25.8 µM | IC50 [2]: 28.5 µM | IC50 [3]: 21.4 µM | IC50 [4]: 26.5 µM

CNCCCN1C(=O)c2cccc3c(N4CCN(C(=O)OC(C)(C)C)CC4)ccc(c23)C1=O
IC50 [1]: 17.4 µM | IC50 [2]: 9.75 µM | IC50 [3]: 13.1 µM | IC50 [4]: 8.45 µM

O=C1c2cccc3c(N4CCN(C(=S)SCc5ccccc5)CC4)ccc(c23)C(=O)N1CCc1ccc(O)c(O)c1
IC50 [1]: 34.7 µM | IC50 [2]: 31.1 µM | IC50 [3]: 35 µM | IC50 [4]: 31.2 µM
